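Dose response: 5 concentrations. Exposure: 48 h. Format: 96-well plates. Endpoint: linear interpolation; highest concentration if not reached. GI50 marks 50% less growth. TGI: total growth inhibition.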
Legend:
Assay in all cases: NCI anticancer screen, dose series, 48 h
[1] = tested on: RPMI-8226 leukemia
[2] = tested on: SK-MEL-2 melanoma
[3] = tested on: A549 NSCLC
[4] = tested on: MOLT-4 leukemia
[5] = tested on: M14 melanoma
[6] = tested on: IGROV1 ovarian
[7] = tested on: SK-OV-3 ovarian
[8] = tested on: SNB-75 CNS
[9] = tested on: OVCAR-5 ovarian
[10] = tested on: SR leukemia

Structure (SMILES)	GI50 [1]	TGI [1]	GI50 [2]	TGI [2]	GI50 [3]	TGI [3]	GI50 [4]	TGI [4]	GI50 [5]	TGI [5]	GI50 [6]	TGI [6]	GI50 [7]	TGI [7]	GI50 [8]	TGI [8]	GI50 [9]	TGI [9]	TGI [10]	GI50 [10]
CCN(Cc1ccc(F)cc1)c1ccc(CO)c(C(F)(F)F)c1	11.7 µM	45.2 µM	15.1 µM	32.5 µM	10.9 µM	23.5 µM	15.2 µM	43.5 µM	15.1 µM	30.9 µM	1.56 µM	11.6 µM	15.8 µM	30.8 µM	14.3 µM	30.6 µM	1.28 µM	5 µM		
Cc1ccc(NC(=O)/C(C#N)=C/c2ccccc2)c(C)c1		> 100 µM		> 100 µM		> 100 µM		> 100 µM		> 100 µM		> 100 µM		> 100 µM		> 100 µM		> 100 µM	> 100 µM	
CC(=O)Nc1ccc(S(=O)(=O)NN(C)S(=O)(=O)c2ccc(C)cc2)cc1		> 100 µM		> 100 µM		> 100 µM		> 100 µM		> 100 µM		> 100 µM		> 100 µM				> 100 µM	> 100 µM	
O=C(Cc1ccccc1)C(c1ccccc1)S(=O)(=O)c1ccccc1 (stereo not given)		> 100 µM		> 100 µM		> 100 µM		> 100 µM		> 100 µM		> 100 µM		> 100 µM		> 100 µM		> 100 µM	> 100 µM	
CC1CCN(CCOc2ccc(CNc3ccc4nc(CCC5CCCCC5)[nH]c4c3)cc2)CC1	1.38 µM	3.35 µM	1.83 µM	3.41 µM			1.6 µM	4.5 µM	1.56 µM	3.01 µM	1.59 µM	3.27 µM	1.81 µM	3.4 µM	1.59 µM	3.55 µM	1.76 µM	3.44 µM	2.66 µM	0.485 µM
N#C/C(=C1\OC(=N)C(c2ccc(Cl)cc2Cl)C1=O)c1ccc(Cl)cc1Cl (stereo not given)		> 100 µM		> 100 µM		> 100 µM		> 100 µM		> 100 µM		> 100 µM		> 100 µM		> 100 µM		> 100 µM		
C=C1C=CC2(Br)OC3CC(C)(Cl)C(Br)CC13C2(C)C (stereo not given)		53.1 µM		31.9 µM		> 100 µM		34.9 µM		53.2 µM		92.7 µM		> 100 µM		77.7 µM		57.6 µM		
Cc1nnc(N/N=C(/C(=O)C(C#N)c2ccc(Cl)cc2)C(C#N)c2ccc(Cl)cc2)n1N (stereo not given)		45.6 µM		34.5 µM		43.9 µM		> 100 µM		38.7 µM						30.1 µM		33.6 µM		
CSC1=Nc2c(c(C)c(-c3ccccc3)n2COC(CO)CO)C2=NC(=O)CN12	> 100 µM	> 100 µM	> 100 µM	> 100 µM	> 100 µM	> 100 µM	> 100 µM	> 100 µM			0.421 µM	42.8 µM	> 100 µM	> 100 µM	58.9 µM	> 100 µM	> 100 µM	> 100 µM	> 100 µM	> 100 µM
CC1CCC2(C)C(CC=C(C=O)C2(O)C=O)C12CO2 (stereo not given)		6.83 µM		8.53 µM		26.4 µM		5.83 µM		6.29 µM		7.72 µM		10.2 µM				8.03 µM	5.33 µM	
Cc1ccc(Cl)cc1-n1c(C)nc2c(cnn2-c2ccnc3c(C(F)(F)F)cccc23)c1=O	> 100 µM	> 100 µM	> 100 µM	> 100 µM	> 100 µM	> 100 µM	> 100 µM	> 100 µM			> 100 µM	> 100 µM	> 100 µM	> 100 µM	> 100 µM	> 100 µM	> 100 µM	> 100 µM		
CC(C)(C)c1cc(C(=O)O)c2c(c1)C(=O)OC2(c1ccccc1)c1ccccc1C(=O)O (stereo not given)	> 100 µM	> 100 µM		> 100 µM		> 100 µM		> 100 µM		> 100 µM	> 100 µM	> 100 µM				> 100 µM		> 100 µM	> 100 µM	
Fc1ccc2nc(-c3nc(-c4ccccc4)n4ccccc34)[nH]c2c1			2.85 µM	7.83 µM	2.68 µM	7.98 µM	3.6 µM	> 100 µM	3.83 µM	14.1 µM	1.95 µM	5.3 µM	2.4 µM	5.26 µM	2.09 µM	6.87 µM	3.07 µM	9.04 µM	> 100 µM	4.45 µM
C[P+]1(c2ccccc2)CCCCC1		> 100 µM		> 100 µM		> 100 µM		> 100 µM		> 100 µM		> 100 µM		> 100 µM		> 100 µM		> 100 µM		
O=C(CO)C1CC2C=CC1C2 (stereo not given)		> 100 µM		> 100 µM		> 100 µM		> 100 µM		> 100 µM		> 100 µM		> 100 µM		> 100 µM		> 100 µM		
C=CC[N+]1(CC)CCN=C1CCCCCCCCCCCCCCCCC (stereo not given)			0.538 µM	1.59 µM			1.07 µM	3.51 µM	0.35 µM	1.28 µM	0.237 µM	0.475 µM	1.12 µM	2.33 µM			0.472 µM	1.64 µM		
CN1CCCC1c1cccnc1.O=C(O)c1ccccc1O.O=C([O-])c1ccccc1[OH2+].O=C([O-])c1ccccc1[OH2+].[Mn+2] (stereo not given)	77.9 µM	> 100 µM	54.3 µM	> 100 µM	> 100 µM	> 100 µM	64.9 µM	> 100 µM	> 100 µM	> 100 µM	> 100 µM	> 100 µM	> 100 µM	> 100 µM	> 100 µM	> 100 µM	73.1 µM	> 100 µM		

Structure (SMILES)	GI50 [1]	TGI [1]	GI50 [2]	TGI [2]	GI50 [3]	TGI [3]	GI50 [4]	TGI [4]	GI50 [5]	TGI [5]	GI50 [6]	TGI [6]	GI50 [7]	TGI [7]	GI50 [8]	TGI [8]	GI50 [9]	TGI [9]	TGI [10]	GI50 [10]
O=S(=O)(NCCCNc1nccc(-c2c(-c3ccc(F)cc3)nc3sccn23)n1)c1ccc(F)cc1	5.29 µM	86 µM	23.2 µM	> 100 µM	4.87 µM	> 100 µM	8.08 µM	> 100 µM	7.06 µM	> 100 µM	8.85 µM	> 100 µM	17.1 µM	> 100 µM	2.16 µM	16.9 µM	> 100 µM	> 100 µM		
C=CC(=O)N[C@@H](/C=C/C(=O)OCC)Cc1ccc(-c2cc(Cl)cc(Cl)c2)cc1			16.3 µM	38.3 µM	17.7 µM	> 100 µM	7.14 µM	> 100 µM	17 µM	80.6 µM	12.7 µM	> 100 µM	19.4 µM	63.1 µM	10.8 µM	70 µM	21.6 µM	> 100 µM	44.8 µM	5.63 µM
Nc1nc2ccccc2c2c1S(=O)(=O)c1ccc(Cl)cc1C2=O	0.719 µM	3.31 µM	2.27 µM	> 50 µM	3.26 µM	> 50 µM	1.42 µM	8.86 µM	2.45 µM	35.4 µM	1.7 µM	> 50 µM	6.9 µM	44.8 µM			1.42 µM	4.62 µM	> 50 µM	0.917 µM
Clc1ccc([I+]c2ccc(Cl)cc2Cl)c(Cl)c1	2.19 µM	5.25 µM	2.62 µM	5 µM	2.66 µM	7.71 µM	2.5 µM	6.62 µM	2.58 µM	6.07 µM			4.17 µM	12 µM	1.88 µM	5.39 µM	1.8 µM	3.8 µM	5.65 µM	2.19 µM
O=[N+]([O-])c1cc(Cc2cc([N+](=O)[O-])c3cccnc3c2O)c(O)c2ncccc12		41.4 µM		29.6 µM		30.8 µM		> 30.4 µM		30.1 µM		17.2 µM		37.5 µM		24.9 µM		76.1 µM		
c1ccc(C2CCCCC2)c(OCCCCCN2CCNCC2)c1	1.69 µM	4.75 µM			4.81 µM	20.2 µM	1.63 µM	5.07 µM	1.86 µM	3.89 µM	2.77 µM	12.6 µM	6.51 µM	21.8 µM	1.32 µM	3.54 µM	3.46 µM	13 µM	4.56 µM	0.995 µM
COC1=C(OC)[C@]2(OC)c3c(O)c(OC)c4c(c3O[C@@]23O[C@@H](c2ccccc2)CC=C3C1=O)[C@@H](OC)C[C@H](c1ccccc1)O4	0.083 µM	0.335 µM			2.21 µM	5.02 µM	0.0401 µM	0.194 µM	0.516 µM	1.86 µM	0.374 µM	1.41 µM	1.91 µM	3.56 µM	1.36 µM	2.79 µM	1.5 µM	2.93 µM	0.133 µM	0.0317 µM
c1ccc2c(CNCCN3CCNCC3)c3ccccc3c(CNCCN3CCNCC3)c2c1			29 µM	> 100 µM	35.1 µM	> 100 µM	3.88 µM	27.5 µM	22.8 µM	60.4 µM	19.8 µM	85.3 µM	24.5 µM	79.8 µM	58.4 µM	> 100 µM	3.99 µM	17.4 µM		
Clc1nc(Cl)c2ncn(CCOCCn3cnc4c(Cl)nc(Cl)nc43)c2n1					0.312 µM	1.3 µM	0.336 µM	> 100 µM	0.287 µM	0.817 µM	0.207 µM	0.408 µM	1.44 µM	2.77 µM	0.181 µM	0.342 µM	0.227 µM	0.51 µM	54.4 µM	0.241 µM
Cc1ccc(S(=O)(=O)NC(=O)OC23COCN2COC3)cc1		73 µM		> 100 µM		> 100 µM				> 100 µM		> 100 µM		> 100 µM		> 100 µM		> 100 µM	> 100 µM	
N#CC1C(N)=NNC12Nc1ccccc1S2 (stereo not given)	26.3 µM	> 100 µM	6.28 µM	43.9 µM	9.61 µM	31.5 µM			15.3 µM	40.5 µM	3.22 µM	20.6 µM	25.9 µM	> 100 µM			31.5 µM	76.5 µM	29.9 µM	8.81 µM
O=C1C(Nc2cccc(O)c2)=C(Sc2ccccc2)C(=O)N1Cc1ccccc1	1.36 µM	4.07 µM	11.4 µM	26.7 µM	3.81 µM	15.9 µM	2.78 µM	12.3 µM	5.35 µM	19.5 µM			16.4 µM	35.3 µM			18.2 µM	34.1 µM	21.2 µM	4.74 µM
CCc1ccccc1NC(=O)CC1NC(=O)CS1 (stereo not given)		> 100 µM		> 100 µM		> 100 µM		> 100 µM		> 100 µM		> 100 µM		> 100 µM		> 100 µM		> 100 µM		
CC(=O)CC(=O)CCC(=O)Nc1cccc(C(F)(F)F)c1		> 100 µM		> 100 µM		> 100 µM		> 100 µM		> 100 µM		> 100 µM		> 100 µM				> 100 µM		
O=C(c1ccco1)c1c(C(F)(F)F)n([O-])c2cc(F)c(F)cc2[n+]1=O		0.341 µM	2.93 µM	12.8 µM	1.32 µM	3.12 µM	0.0867 µM	0.411 µM	0.225 µM	0.528 µM	1.07 µM	3.31 µM	0.346 µM	1.11 µM			0.67 µM	2.38 µM	0.39 µM	0.0237 µM
Cn1nc(-c2ccccc2)c(C(=O)/C=C/c2ccc(Cl)cc2)c(N2CCOCC2)c1=O		6.74 µM				23.1 µM		4.63 µM		15.7 µM		16.1 µM		19.7 µM						

— PubChem BioAssay (NCI)
